Several values for one entry are separate records, joined by “and”; a condition that tells them apart may be missing. Identical values can stand only once. Inconclusive results and toxic doses are left out. Numbered stars: 1 amine (or outer) side, 2 acyl side, 3 side chain; on linkers, the order of the positions; unused ones are H or OH. Bridge positions count the residues as written; N and C are the ends. Square brackets hold non-standard residues; d marks the D form. Peptide text beside a SMILES is read from it. I, II: the chains in the order shown. Actinocin(1to9) = Cc1c2oc3c(C)ccc(C(=O)[*:2])c3nc-2c(C(=O)[*:1])c(N)c1=O; NMeV = CN[CH](C(=O)O)C(C)C; Sar = CNCC(=O)O

The source of these data is PubChem BioAssay AID248 (DTP/NCI, 2004).

In the test the test system is L1210 leukemia ip in BDF1 mice, survival T/C. Description: NCI In Vivo Anticancer Drug Screen. Data for tumor model L1210 Leukemia (intraperitoneal) in B6D2F1 (BDF1) mice. The note with it: higher = longer survival. In a few lines:
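Transplanted-tumor mice were given test agent; controls received vehicle only. Survival readings from the two groups were divided (treated over control).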

Setting [1] is: endpoint: mean survival time, dose: 100.0 mg/kg/injection, schedule: Q01DX001 (ip), vehicle: saline.
Where [2] appears, read: endpoint: mean survival time, dose: 200.0 mg/kg/injection, schedule: Q01DX001 (ip), vehicle: saline.
Setting [3] is: endpoint: mean survival time, dose: 400.0 mg/kg/injection, schedule: Q01DX001 (ip), vehicle: saline.
[4] abbreviates: endpoint: mean survival time, dose: 100.0 mg/kg/injection, schedule: Q01DX001 (ip), vehicle: Klucel (hydroxypropylcellulose) (HPC).
Where [5] appears, read: endpoint: mean survival time, dose: 100.0 mg/kg/injection, schedule: Q01DX009 (ip), vehicle: Klucel (hydroxypropylcellulose) (HPC).
[6] abbreviates: endpoint: mean survival time, dose: 100.0 mg/kg/injection, schedule: Q04DX002 (ip), vehicle: Klucel (hydroxypropylcellulose) (HPC).
[7] abbreviates: endpoint: mean survival time, dose: 200.0 mg/kg/injection, schedule: Q01DX001 (ip), vehicle: Klucel (hydroxypropylcellulose) (HPC).
Setting [8] is: endpoint: mean survival time, dose: 200.0 mg/kg/injection, schedule: Q01DX009 (ip), vehicle: Klucel (hydroxypropylcellulose) (HPC).
The mark [9] stands for this setting: endpoint: mean survival time, dose: 200.0 mg/kg/injection, schedule: Q04DX002 (ip), vehicle: Klucel (hydroxypropylcellulose) (HPC).
Where [10] appears, read: endpoint: mean survival time, dose: 400.0 mg/kg/injection, schedule: Q01DX001 (ip), vehicle: Klucel (hydroxypropylcellulose) (HPC).
[11] abbreviates: endpoint: mean survival time, dose: 400.0 mg/kg/injection, schedule: Q01DX009 (ip), vehicle: Klucel (hydroxypropylcellulose) (HPC).
The mark [12] stands for this setting: endpoint: mean survival time, dose: 400.0 mg/kg/injection, schedule: Q04DX002 (ip), vehicle: Klucel (hydroxypropylcellulose) (HPC).

`CCC(C)C1NC(=O)C(NC(=O)c2c3nc4c(C(=O)NC5C(=O)NC(C(C)C)C(=O)N6CCCC6C(=O)N(C)CC(=O)N(C)C(C(C)C)C(=O)OC5C)ccc(C)c4oc-3c(C)c(=O)c2N)C(C)OC(=O)C(C(C)C)N(C)C(=O)CN(C)C(=O)C2CCCN2C1=O` (stereo not drawn) (I: TIP[Sar][NMeV] / II: TVP[Sar][NMeV]; ester I:1-I:C, II:1-II:C; linker I:N-II:N via Actinocin(1to9); configuration not given here): the T/C is 92 % of control (endpoint: mean survival time, dose: 0.2 mg/kg/injection, schedule: Q01DX009 (ip), vehicle: saline); 97 % of control (endpoint: mean survival time, dose: 3.1 micrograms/kg/injection, schedule: Q01DX001 (ip), vehicle: saline); 112 % of control (endpoint: mean survival time, dose: 5.5 micrograms/kg/injection, schedule: Q01DX009 (ip), vehicle: acetone); 98 % of control (endpoint: mean survival time, dose: 6.3 micrograms/kg/injection, schedule: Q01DX001 (ip), vehicle: saline); 123 % of control (endpoint: mean survival time, dose: 8.2 micrograms/kg/injection, schedule: Q01DX009 (ip), vehicle: acetone); 100 % of control (endpoint: mean survival time, dose: 12.5 micrograms/kg/injection, schedule: Q01DX001 (ip), vehicle: saline). Besides, the T/C (endpoint: mean survival time, dose: 25.0 micrograms/kg/injection, schedule: Q01DX001 (ip), vehicle: saline) is 107 % of control; the T/C (endpoint: mean survival time, dose: 25.0 micrograms/kg/injection, schedule: Q01DX009 (ip), vehicle: saline) is 159 % of control; the T/C (endpoint: mean survival time, dose: 50.0 micrograms/kg/injection, schedule: Q01DX001 (ip), vehicle: saline) was 114 % of control; the T/C (endpoint: mean survival time, dose: 100.0 micrograms/kg/injection, schedule: Q01DX001 (ip), vehicle: saline) was 111 % of control; the T/C (endpoint: mean survival time, dose: 200.0 micrograms/kg/injection, schedule: Q01DX001 (ip), vehicle: saline) is 117 % of control; the T/C (endpoint: mean survival time, dose: 400.0 micrograms/kg/injection, schedule: Q01DX001 (ip), vehicle: saline) is 116 % of control. Further, the T/C (endpoint: median survival time, dose: 12.5 micrograms/kg/injection, schedule: Q01DX009 (ip), vehicle: water) is 121 % of control; the T/C (endpoint: median survival time, dose: 25.0 micrograms/kg/injection, schedule: Q01DX009 (ip), vehicle: water) is 115 % of control; the T/C (endpoint: median survival time, dose: 100.0 micrograms/kg/injection, schedule: Q01DX009 (ip), vehicle: water) is 157 % of control; the T/C (endpoint: median survival time, dose: 200.0 micrograms/kg/injection, schedule: Q01DX001 (ip), vehicle: water) is 115 % of control; the T/C (endpoint: median survival time, dose: 400.0 micrograms/kg/injection, schedule: Q01DX001 (ip), vehicle: water) is 123 % of control; the T/C (endpoint: median survival time, dose: 600.0 micrograms/kg/injection, schedule: Q04DX003 (ip), vehicle: water) is 150 % of control.
Take `O=[N+]([O-])c1ccc(N/N=C/c2cc(Cl)cc(Cl)c2)c([N+](=O)[O-])c1`: the T/C was 100 % of control under setting [1], 105 % of control under setting [2] and 96 % of control under setting [3].
Turning to `O=C(Nc1ccccc1F)OCc1ccco1`, the T/C reads like this: under setting [4], 99 % of control; under setting [5], 95 % of control and 102 % of control; under setting [6], 102 % of control and 106 % of control; under setting [7], 99 % of control; under setting [8], 95 % of control and 91 % of control; under setting [9], 106 % of control and 118 % of control. Moreover, the T/C by setting is: under setting [10], 94 % of control; under setting [11], 98 % of control and 102 % of control; under setting [12], 96 % of control and 104 % of control.
Turning to `CC(=O)OC1CCC(OC(C)=O)C(C#N)(C#N)C1(C#N)C#N` (stereo not drawn), the T/C (endpoint: mean survival time, dose: 100.0 mg/kg/injection, schedule: Q04DX003 (ip), vehicle: saline with Tween-80) was 104 % of control and the T/C (endpoint: mean survival time, dose: 200.0 mg/kg/injection, schedule: Q04DX003 (ip), vehicle: saline with Tween-80) is 93 % of control.
As to `CC(=O)NC1CCC(C(F)(F)F)CC1` (stereo not drawn), the T/C is 93 % of control and 96 % of control under setting [4]; 95 % of control and 98 % of control under setting [7]; 106 % of control and 98 % of control under setting [10].
For the molecule `CCCCCCCCN(CC)CC`, the T/C reads like this: (endpoint: mean survival time, dose: 50.0 mg/kg/injection, schedule: Q01DX001 (ip), vehicle: saline) 88 % of control; under setting [1], 90 % of control; under setting [2], 90 % of control.
As for `C=CCSc1cccc(Cl)c1`, the T/C is 101 % of control under setting [1] and 96 % of control under setting [2].
Regarding `CSC(c1ccccc1Cl)=[N+]1CCCCC1`, the T/C is 104 % of control (endpoint: mean survival time, dose: 100.0 mg/kg/injection, schedule: Q04DX003 (ip), vehicle: Klucel (hydroxypropylcellulose) (HPC)); 88 % of control (endpoint: mean survival time, dose: 200.0 mg/kg/injection, schedule: Q04DX003 (ip), vehicle: Klucel (hydroxypropylcellulose) (HPC)); 93 % of control (endpoint: mean survival time, dose: 400.0 mg/kg/injection, schedule: Q04DX003 (ip), vehicle: Klucel (hydroxypropylcellulose) (HPC)).
For `O=C(CCN1CCCCC1)c1cccc([N+](=O)[O-])c1`, the T/C is 93 % of control (endpoint: mean survival time, dose: 12.0 mg/kg/injection, schedule: Q04DX003 (ip), vehicle: saline); 111 % of control (endpoint: mean survival time, dose: 25.0 mg/kg/injection, schedule: Q01DX009 (ip), vehicle: saline); 101 % of control (endpoint: mean survival time, dose: 25.0 mg/kg/injection, schedule: Q04DX003 (ip), vehicle: saline); 103 % of control (endpoint: mean survival time, dose: 50.0 mg/kg/injection, schedule: Q01DX009 (ip), vehicle: saline); 95 % of control (endpoint: mean survival time, dose: 50.0 mg/kg/injection, schedule: Q04DX003 (ip), vehicle: saline); 103 % of control (endpoint: mean survival time, dose: 100.0 mg/kg/injection, schedule: Q01DX009 (ip), vehicle: saline).
Consider `O=C(O)COc1c(Cl)cc(Cl)cc1Cl`, for which the T/C is, setting by setting: under setting [6], 100 % of control; under setting [9], 100 % of control; under setting [12], 96 % of control.
Take `CC(=Nc1cccnc1)c1ccccc1`: the T/C runs as follows: (endpoint: mean survival time, dose: 15.0 mg/kg/injection, schedule: Q01DX001 (ip), vehicle: carboxymethylcellulose (CMC)) 98 % of control; (endpoint: mean survival time, dose: 30.0 mg/kg/injection, schedule: Q01DX001 (ip), vehicle: carboxymethylcellulose (CMC)) 97 % of control.
For `NC(Cc1ccccc1)c1nn[nH]n1` (stereo not drawn), the T/C (endpoint: mean survival time, dose: 55.0 mg/kg/injection, schedule: Q01DX Z (ip), vehicle: methylcellulose (MC)) is 93 % of control and the T/C (endpoint: mean survival time, dose: 83.0 mg/kg/injection, schedule: Q01DX Z (ip), vehicle: methylcellulose (MC)) was 110 % of control.
`O=CN1CCCCC1`: the T/C is, setting by setting: under setting [1], 97 % of control; under setting [2], 105 % of control.
On to `CC(C#N)(CCC(=O)O)N=NC(C)(C#N)CCC(=O)O` (stereo not drawn), for which the T/C is, setting by setting: under setting [1], 102 % of control; under setting [2], 103 % of control; under setting [3], 108 % of control.
As to `O=NN(CCCC(=O)O)C(=O)NCCCC(=O)O`, the T/C by setting is: (endpoint: mean survival time, dose: 25.0 mg/kg/injection, schedule: Q01DX Z (ip), vehicle: carboxymethylcellulose (CMC)) 103 % of control; (endpoint: mean survival time, dose: 50.0 mg/kg/injection, schedule: Q01DX Z (ip), vehicle: carboxymethylcellulose (CMC)) 90 % of control; (endpoint: mean survival time, dose: 100.0 mg/kg/injection, schedule: Q01DX Z (ip), vehicle: carboxymethylcellulose (CMC)) 100 % of control; (endpoint: mean survival time, dose: 200.0 mg/kg/injection, schedule: Q01DX Z (ip), vehicle: carboxymethylcellulose (CMC)) 94 % of control; (endpoint: mean survival time, dose: 300.0 mg/kg/injection, schedule: Q01DX Z (ip), vehicle: carboxymethylcellulose (CMC)) 95 % of control.
In the case of `O=S(=O)(O)c1ccc(CCCCCCCCl)cc1`, the T/C reads like this: under setting [6], 100 % of control; under setting [9], 90 % of control.
As for `Cc1ccc(S(=O)(=O)OC(C(F)(F)F)C(F)(F)F)cc1`, the T/C reads like this: under setting [6], 97 % of control; under setting [9], 90 % of control; under setting [12], 101 % of control.
On to `O=C1CCC2=C3C4CCCCC4C(=O)C4CCCC(OC2C1)C34` (stereo not drawn), for which the T/C by setting is: (endpoint: mean survival time, dose: 75.0 mg/kg/injection, schedule: Q01DX001 (ip), vehicle: other) 105 % of control; (endpoint: mean survival time, dose: 150.0 mg/kg/injection, schedule: Q01DX001 (ip), vehicle: other) 94 % of control; (endpoint: mean survival time, dose: 300.0 mg/kg/injection, schedule: Q01DX001 (ip), vehicle: other) 89 % of control.
For the molecule `CC(C)(C)NC(=O)Oc1ccc(-c2ccccc2)cc1`, the T/C was 99 % of control under setting [5], 95 % of control under setting [8] and 95 % of control under setting [11].
As to `CCN(CC)C(=O)COc1ccc(Cl)cc1`, the T/C reads like this: (endpoint: mean survival time, dose: 100.0 mg/kg/injection, schedule: Q04DX002 (ip), vehicle: saline) 114 % of control; (endpoint: mean survival time, dose: 200.0 mg/kg/injection, schedule: Q04DX002 (ip), vehicle: saline) 107 % of control; (endpoint: mean survival time, dose: 400.0 mg/kg/injection, schedule: Q04DX002 (ip), vehicle: saline) 118 % of control.
Turning to `O=C(O)C(Nc1ccc(Oc2ccc(NC(C(=O)O)c3ccccc3)cc2)cc1)c1ccccc1` (stereo not drawn), the T/C under setting [6] was 100 % of control, the T/C under setting [9] is 100 % of control and the T/C under setting [12] is 100 % of control.
